Experimental data reported in patent US20200188468A1, “A COATED COSTUS COMPOSITION ENRICHED WITH TRITERPENOIDS AND A METHOD OF PREPARATION OF THE SAME” (priority 2017, published 2020).

Tests used:
Format in all cases: in vivo, Wistar rats
[1] = tested on: streptozotocin-induced diabetic rats; assay: Postprandial glucose levels (OGTT) of costus in various dosages; settings: STZ diabetic rats, 1 mg/kg oral
Description: Adult Wistar rats weighing 200-250 gm were selected at random; the animals were kept in standard animal house conditions at 24±2° C., 65% relative humidity and 12 h light/dark cycle. The animals were acclimatized for a period of five days and fed with standard pellet diet and water. Six healthy rats were separated at random from the lot and diabetes was induced in rest by a single intra-peritoneal injection of streptozotocin (STZ) at 35 mg/kg. Fasting blood sugar (FBS) was measured after seven days of STZ injection and rats having FBS more than 200 mg/dl were considered as diabetic. The diabetic rats were separated out and randomly divided into 11 groups having six rats in each. Six normal healthy rats were allocated to Group I; STZ induced diabetic rats were randomly allocated to Groups 2 to 12.
(§1) Oral glucose tolerance test (OGTT) was performed following a glucose challenge of 2 g/kg by oral gavages. It was to test the ability of body cells to absorb glucose after you ingest a given amount of sugar. Blood glucose was recorded at 30 min, 60 min, 120 min and 180 min, after the glucose challenge on day of the study.
Just after glucose challenge test a specific Doses of Sample-1 (from example 1) and Product-2 (from example 4) were administered through oral gavages. The dosages for Sample-1 and Product-1 were in a range of 25 mg/kg Body wt to 300 mg/kg Body wt. In one of the groups animals were administered with glibenclamide.
Group 2—Positive control—diabetic animals administered with glibenclamide at 1 mg/kg Body wt orally for 30 days.
Group 3—diabetic animals administered with Sample-2 at 25 mg/kg Body wt orally for 30 days.
Group 4—diabetic animals administered with Sample-2 at 50 mg/kg Body wt orally for 30 days.
Group 5—diabetic animals administered with Sample-2 at 75 mg/kg Body wt orally for 30 days.
Group 6—diabetic animals administered with Sample-2 at 100 mg/kg Body wt orally for 30 days.
Group 7—diabetic animals administered with Sample-2 at 150 mg/kg Body wt orally for 30 days.
Group 8—diabetic animals administered with Sample-2 at 300 mg/kg Body wt orally for 30 days.
Group 9—diabetic animals administered with Product-2 at 25 mg/kg Body wt orally for 30 days.
Group 10—diabetic animals administered with Product-2 at 50 mg/kg Body wt orally for 30 days.
Group 11—diabetic animals administered with Product-2 at 75 mg/kg Body wt orally for 30 days.
Group 12—diabetic animals administered with Product-2 at 100 mg/kg Body wt orally for 30 days.
Group 13—diabetic animals administered with Product-2 at 150 mg/kg Body wt orally for 30 days.

[2] = tested on: streptozotocin-induced diabetic rats; assay: Fasting blood glucose level, 30 days treatment; settings: STZ diabetic rats, glibenclamide 1 mg/kg, Samples 1-3 100 mg/kg, Product-1 and -2 50 mg/kg, Product-3 10 mg/kg orally
Description: (§2) Adult Wistar rats weighing 200-250 gm were selected at random; the animals were kept in standard animal house conditions at 24±2° C., 65% relative humidity and 12 h light/dark cycle. After five days of acclimatisation, diabetes was induced by injecting streptozotocin 35 mg/kg dissolved in 0.1M citrate buffer of pH 4.5, intraperitoneally, as standardised in our laboratory. Five days after induction of diabetes (day 1 of the study), animals fasted for 12 hours and the fasting blood glucose level (FBG) was estimated for diagnosing diabetic rats. Animals having FBG more than 250 mg/dl were included in the study.
(§3) Six normal healthy rats were allocated to Group I; streptozotocin-induced diabetic rats were randomly allocated to Groups 2 to 9 with 6 rats in each group. The animals were treated for 30 days as per below experimental design:
(§4) Group 3—Positive control—diabetic animals administered with glibenclamide at 1 mg/kg Body wt orally for 30 days.
(§5) Group 4—diabetic animals administered with Sample 1 at 100 mg/kg Body wt orally for 30 days.
(§6) Group 5—diabetic animals administered with Sample 2 at 100 mg/kg Body wt orally for 30 days.
(§7) Group 6—diabetic animals administered with of Sample 3 at 100 mg/kg Body wt orally for 30 days.
(§8) Group 7—diabetic animals administered with Product-1 at 50 mg/kg Body wt orally for 30 days.
(§9) Group 8—diabetic animals administered with Product-2 at 50 mg/kg Body wt orally for 30 days.
(§10) Group 9—diabetic animals administered with of Product-3 at 10 mg/kg Body wt orally for 30 days.
FBG was measured on Day 0, Day 15 and Day 30. OGTT was also performed on Day 0, Day 15 and Day 30.

[3] = tested on: streptozotocin-induced diabetic rats; assay: Oral glucose tolerance test on day 1, 15 and 30 of 30 days treatment; settings: STZ diabetic rats, doses as in E42
Description: as §2, §3, §4, §5, §6, §7, §8, §9, §10
as §1, with “30 min (PPG1),” for “30 min,”, “60 min (PPG2),” for “60 min,”, “min (PPG3)” for “min”, “180 min (PPG4),” for “180 min,”, “day 1, day 15 and day 30” for “day”

[4] = tested on: high-fat diet-induced insulin resistance rats; assay: High fat diet-induced insulin resistance model (Type 2 diabetes); settings: HFD rats
Description: The study was designed to evaluate the effect of different fractions and compositions of costus on high fat-induced resistance Type-2 diabetic model (HFD). Adult Wistar rats were allowed free access to food and water. They were housed under identical standard conditions. The animals were kept for acclimatisation for a period of 7 days. After 7 days, the animals were randomly divided into six groups of six rats each. The normal control group was treated with normal regular diet and the rest of the animals were fed with high-fat diet for 6 weeks. After 6 weeks, Sample-1, Sample-3, and Product-2 were administered at a specific dosage as per their groups for 6 consecutive weeks. The experimental design was as follows:
as §4
Group 4—diabetic animals administered with Sample-1 at 300 mg/kg Body wt orally for 30 days.
Group 5—diabetic animals administered with Sample-3 at 100 mg/kg Body wt orally for 30 days.
Group 6—diabetic animals administered with of Product-2 at 50 mg/kg Body wt orally for 30 days.
Body weights were determined weekly. At the end of experimental period, blood samples were collected to determine plasma glucose, insulin, glycosylated haemoglobin, triglycerides, and total cholesterol, LDL, HDL and VLDL.

[5] = tested on: streptozotocin and HFD diabetic rats; assay: Streptozotocin plus high fat diet Type 2 diabetes model, coated versus uncoated costus extract; settings: STZ + HFD diabetic rats
Description: Wistar rats were selected at random; the animals were kept in standard animal house conditions at 24±2° C., 65% relative humidity and 12 h light/dark cycle. The animals were acclimatized for a period of five days and fed with standard pellet diet and water. Fasted male Wistar rats were intraperitoneally injected with freshly prepared solution of streptozotocin (STZ) (35 mg/kg). After injection, all the animals were continued on the standard rodent diet for 2 weeks. At the end of 2 weeks after STZ injection; 1 ml of blood was collected from retro-orbital plexus of each rat. Blood was allowed to clot for 30 min the serum was separated by centrifuging at 1008 G-force for 20 min at 8.0° C. in a cold centrifuge. The serum separated from the blood of each animal was used for the estimation of glucose. All the samples were analysed calorimetrically in Autoanalyzer (MERCK MICROLAB 300) using commercial kits. The development of hyperglycaemia in these rats was thus confirmed by measuring fasting blood glucose levels. The rats with the fasting PGL of ≥200 mg dl−1 were considered diabetic and selected for further dietary manipulation. 350 g of standard rodent diet was powdered and mixed with 60 g of lard, 45 g of yolk powder, and 45 g of plantation white sugar (HFD diet). The above mixture is pelleted and used to feed the rats for 2 weeks to induce diabetic dyslipidaemia. Required amount of the diet was freshly prepared on a daily basis. At the end of 2nd week the blood was collected from each animal for determination of glucose levels as described above.
After the second fasting blood glucose estimation, at the end of 4th week, the rats were divided into 6 groups of 6 rats each: Group-1 consisted of age-matched non-diabetic normal rats that neither received streptozotocin nor the high-fat diet and served as normal; Group 2 consisted of diabetic rats without any drug treatment and served as untreated control; Group 3 consisted of diabetic rats and received standard drug, Glibenclamide. Group 4 consisted of diabetic rats and received excipients. Group 5 consisted of diabetic rats and sample 2. Group 6 consisted of diabetic rats and product 2. The high fat diet was continued for the rest of the study duration.
Group 3—Diabetic, HFD administered group treated with Glibenclamide at 2.5 mg/Kg p.o. body weight.
Group 5—Diabetic, HFD administered group treated with sample 2 for at 40 mg/kg twice daily.
Group 6—Diabetic, HFD administered group treated with product-2 at 100 mg/kg twice daily.
Body weights were determined biweekly. At the end of experimental period, blood samples were collected to determine plasma glucose, insulin, leptin, glycosylated hemoglobin, triglycerides, total cholesterol, LDL, HDL and VLDL.

[6] = end of experimental period, doses as in E59

COc1ccc(Cl)cc1C(=O)NCCc1ccc(S(=O)(=O)NC(=O)NC2CCCCC2)cc1 [glibenclamide]
Postprandial glucose level 30 min ([1]; 30 min after 2 g/kg glucose): 294 mg/dL | Postprandial glucose level 60 min ([1]; 60 min after 2 g/kg glucose): 170 mg/dL | Postprandial glucose level 120 min ([1]; 120 min after 2 g/kg glucose): 127 mg/dL | Postprandial glucose level 180 min ([1]; 180 min after 2 g/kg glucose): 101 mg/dL | Fasting blood glucose level 0th day ([2]; day 0): 388 mg/dL | Fasting blood glucose level 15th day ([2]; day 15): 266 mg/dL | Fasting blood glucose level 30th day ([2]; day 30): 142 mg/dL | PPG 30 min, Day 1 ([3]; Day 1, 30 min after 2 g/kg glucose): 294 mg/dL | PPG 60 min, Day 1 ([3]; Day 1, 60 min after 2 g/kg glucose): 232 mg/dL | PPG 120 min, Day 1 ([3]; Day 1, 120 min after 2 g/kg glucose): 226 mg/dL | PPG 180 min, Day 1 ([3]; Day 1, 180 min after 2 g/kg glucose): 158 mg/dL | PPG 30 min, Day 15 ([3]; Day 15, 30 min after 2 g/kg glucose): 285 mg/dL | PPG 60 min, Day 15 ([3]; Day 15, 60 min after 2 g/kg glucose): 225 mg/dL | PPG 120 min, Day 15 ([3]; Day 15, 120 min after 2 g/kg glucose): 219 mg/dL | PPG 180 min, Day 15 ([3]; Day 15, 180 min after 2 g/kg glucose): 153 mg/dL | PPG 30 min, Day 30 ([3]; Day 30, 30 min after 2 g/kg glucose): 276 mg/dL | PPG 60 min, Day 30 ([3]; Day 30, 60 min after 2 g/kg glucose): 218 mg/dL | PPG 120 min, Day 30 ([3]; Day 30, 120 min after 2 g/kg glucose): 212 mg/dL | PPG 180 min, Day 30 ([3]; Day 30, 180 min after 2 g/kg glucose): 148 mg/dL | Blood glucose [4, 6]: 142 mg/dL | Glycosylated Hb [4, 6]: 0.5 % of total Hb | HDL [4, 6]: 27 mg/dL | LDL [4, 6]: 55 mg/dL | TC [4, 6]: 91.4 mg/dL | TG [4, 6]: 47 mg/dL | VLDL [4, 6]: 9.4 mg/dL | Insulin ([4]; serum, end of experimental period, doses as in E59): 1.7 ng/mL | Body weight, week 0 ([4]; week 0, glibenclamide 1 mg/kg, Sample-1 300 mg/kg, Sample-3 100 mg/kg, Product-2 50 mg/kg orally): 216 grams | Average Body weight at weekly interval, week 2 ([4]; week 2, doses as in E59): 259 grams | Average Body weight at weekly interval, week 3 ([4]; week 3, doses as in E59): 274 grams | Average Body weight at weekly interval, week 4 ([4]; week 4, doses as in E59): 280 grams | Average Body weight at weekly interval, week 5 ([4]; week 5, doses as in E59): 270 grams | Average Body weight at weekly interval, week 6 ([4]; week 6, doses as in E59): 248 grams | Glycosylated Hb ([5]; after 28 days, doses as in E92): 0.5 % of total Hb | HDL ([5]; after 28 days, doses as in E92): 25 mg/dL | LDL ([5]; after 28 days, doses as in E92): 92 mg/dL | TC ([5]; after 28 days, doses as in E92): 136.4 mg/dL | TG ([5]; after 28 days, doses as in E92): 97 mg/dL | VLDL ([5]; after 28 days, doses as in E92): 19.4 mg/dL | Body weight at biweekly interval, 0 ([5]; interval 0, Glibenclamide 2.5 mg/kg p.o., sample 2 40 mg/kg, product-2 100 mg/kg twice daily): 168 grams | Body weight at biweekly interval, 2 ([5]; interval 2, doses as in E92): 174 grams | Body weight at biweekly interval, 4 ([5]; interval 4, doses as in E92): 180 grams | Body weight at biweekly interval, 6 ([5]; interval 6, doses as in E92): 187 grams | Body weight at biweekly interval, 8 ([5]; interval 8, doses as in E92): 192 grams | Insulin ([5]; serum, after 28 days, doses as in E92): 1.58 ng/mL
